ChEMBL document CHEMBL5230081, “Battle against Vancomycin-Resistant Bacteria: Recent Developments in Chemical Strategies” (J Med Chem, 2019)
In brackets after ≈: the same amount, converted by molar mass.

Experiments:
Enterococcus faecium [1] = assay: Antimicrobial activity against Vancomycin-resistant (Van S) Enterococcus faecium ATCC 51559 assessed as reduction in microbial growth; type: functional
Staphylococcus aureus [2] = assay: Antimicrobial activity against Vancomycin-resistant Staphylococcus aureus incubated for 20 hrs by broth dilution method; type: functional
Enterococcus faecium [3] = assay: Antimicrobial activity against Vancomycin-resistant (Van A) Enterococcus faecium ATCC 51559 assessed as reduction in microbial growth; type: functional
[4] = Binding affinity to D-Ala-D-Ala assessed as dissociation constant
[5] = Binding affinity to D-Ala-D-Lac assessed as dissociation constant
Staphylococcus aureus [6] = assay: Antibacterial activity against Vancomycin-intermediate Staphylococcus aureus NRS1 assessed as bacterial growth inhibition; type: functional
Enterococcus faecium [7] = assay: Antibacterial activity against Vancomycin-resistant Enterococcus faecium assessed as colony forming unit at 20 times MIC concentration measured after 21 days by time kill assay; type: functional; conditions: time 21 day
Staphylococcus aureus [8] = assay: Antimicrobial activity against vancomycin-resistant Staphylococcus aureus assessed as microbial growth reduction; type: functional
[9] = Enterococcus faecium, ATCC 51559, read-out: MIC

Row | SMILES | MIC (Enterococcus faecium [1]) | MIC (Staphylococcus aureus [2]) | MIC (Enterococcus faecium [3]; [9]) | Kd [4] | Kd [5] | MIC (Enterococcus faecium [3]) | MIC (Staphylococcus aureus [6]) | Activity (Enterococcus faecium [7]) | MIC (Staphylococcus aureus [8])
1 | CCCCCCCCCC(=O)O[C@@H]1c2ccc(c(Cl)c2)Oc2cc3cc(c2O[C@@H]2O[C@H](CO)[C@@H](O)[C@H](O)[C@H]2O[C@H]2C[C@](C)(N)[C@H](O)[C@H](C)O2)Oc2ccc(cc2Cl)[C@@H](O)[C@@H](NC(=O)[C@@H](CC(C)C)NC)C(=O)N[C@@H](CC(N)=O)C(=O)N[C@H]3C(=O)N[C@H]2C(=O)N[C@@H]1C(=O)N[C@H](C(=O)O)c1ccccc1-c1cccc2c1 | 0.25 µg/mL | – | – | – | – | – | – | – | –
2 | CN[C@H](CC(C)C)C(=O)N[C@H]1C(=O)N[C@@H](CC(N)=O)C(=O)N[C@H]2C(=O)N[C@H]3C(=O)N[C@H](C(=O)N[C@H](C(=O)NCCSSCCNC(=O)[C@H]4NC(=O)[C@H]5NC(=O)[C@H](NC(=O)[C@@H]6NC(=O)[C@H](CC(N)=O)NC(=O)[C@H](NC(=O)[C@@H](CC(C)C)NC)[C@H](O)c7ccc(c(Cl)c7)Oc7cc6cc(c7O[C@@H]6O[C@H](CO)[C@@H](O)[C@H](O)[C@H]6O[C@H]6C[C@](C)(N)[C@H](O)[C@H](C)O6)Oc6ccc(cc6Cl)[C@H]5O)c5ccc(O)c(c5)-c5c(O)cc(O)cc54)c4cc(O)cc(O)c4-c4cc3ccc4O)[C@H](O)c3ccc(c(Cl)c3)Oc3cc2cc(c3O[C@@H]2O[C@H](CO)[C@@H](O)[C@H](O)[C@H]2O[C@H]2C[C@](C)(N)[C@H](O)[C@H](C)O2)Oc2ccc(cc2Cl)[C@H]1O | – | 11 µM | 11 µM | 1.9 µM | 440 µM | – | – | – | –
3 | CN[C@H](CC(C)C)C(=O)N[C@H]1C(=O)N[C@@H](CC(N)=O)C(=O)N[C@H]2C(=O)N[C@H]3C(=O)N[C@H](C(=O)N[C@H](C(=O)NCCCCCCN(Cc4ccccn4)Cc4ccccn4)c4cc(O)cc(O)c4-c4cc3ccc4O)[C@H](O)c3ccc(c(Cl)c3)Oc3cc2cc(c3O[C@@H]2O[C@H](CO)[C@@H](O)[C@H](O)[C@H]2O[C@H]2C[C@](C)(N)[C@H](O)[C@H](C)O2)Oc2ccc(cc2Cl)[C@H]1O | – | – | 2 µM | – | – | 1.5 µM | 1 µM | 5 log10/ml | –
4 | CCCCCCCCCCC(=O)N[C@@H](CCCCN)C(=O)N[C@@H](CCCCN)C(=O)NC(CCCCNC(=O)[C@H]1NC(=O)[C@H]2NC(=O)[C@H](NC(=O)[C@@H]3NC(=O)[C@H](CC(N)=O)NC(=O)[C@H](NC(=O)[C@@H](CC(C)C)NC)[C@H](O)c4ccc(c(Cl)c4)Oc4cc3cc(c4O[C@@H]3O[C@H](CO)[C@@H](O)[C@H](O)[C@H]3O[C@H]3C[C@](C)(N)[C@H](O)[C@H](C)O3)Oc3ccc(cc3Cl)[C@H]2O)c2ccc(O)c(c2)-c2c(O)cc(O)cc21)C(=O)O (stereo partly drawn) | – | 1 µg/mL | 6 µg/mL | – | – | – | 0.5 µg/mL | – | 0.05 µg/mL (≈ 0.025 µM)
